Test results from PMC6934184, “Selective DNA-PKcs inhibition extends the therapeutic index of localized radiotherapy and chemotherapy” (The Journal of Clinical Investigation, 2019).

Biological target: T1, ACVR2A (Homo sapiens, UniProt P27037)
T1 construct: purchased Thermo Fisher Scientific (Life Technologies) SelectScreen
Assay: SelectScreen LanthaScreen
Assay type: binding
Conditions: read-out: % displacement
Summary of the method: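 Percent values come from Thermo SelectScreen profiling of NU5455, combining activity and binding assays. CSF1R was run in Z'LYTE format at Km app ATP, and CAMK1 in Adapta format with ATP listed at 10.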

T1 sequence (P27037 20-513): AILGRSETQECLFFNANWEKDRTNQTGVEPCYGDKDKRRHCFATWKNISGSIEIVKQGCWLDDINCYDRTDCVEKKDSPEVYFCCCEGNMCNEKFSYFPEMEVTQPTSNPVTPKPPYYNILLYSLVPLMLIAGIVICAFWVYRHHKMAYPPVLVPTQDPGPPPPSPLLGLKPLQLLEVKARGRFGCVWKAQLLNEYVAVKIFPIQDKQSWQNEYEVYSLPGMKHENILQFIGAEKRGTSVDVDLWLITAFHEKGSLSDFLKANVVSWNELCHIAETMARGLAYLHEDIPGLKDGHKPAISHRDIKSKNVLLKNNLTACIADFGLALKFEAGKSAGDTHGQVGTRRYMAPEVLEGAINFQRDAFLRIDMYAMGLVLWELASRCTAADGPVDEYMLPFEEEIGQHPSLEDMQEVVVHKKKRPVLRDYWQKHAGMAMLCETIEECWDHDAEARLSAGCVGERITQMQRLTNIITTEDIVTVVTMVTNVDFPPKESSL

**Q.** For `CN(C(=O)CN1CCOCC1)c1ccc2sc3c(-c4cccc5c(=O)cc(N6CC7CCC(C6)O7)oc45)cccc3c2c1` [NU5455], which inhibition at 1 µM is on record?
**A.** 2.5%
